Results from patent publication US20240041877A1, “DOSAGE REGIME AND METHOD FOR TREATING PULMONARY ARTERIAL HYPERTENSION” (Altavant Sciences GmbH, priority 2019, published 2024).

Experiment: Part 2 (MAD): plasma pharmacokinetics after BID oral KAR5585 for 14 days (incl. accumulation ratios and dose proportionality)
[1] = KAR5585 200 mg BID fed, Cohort 3, Day 1 PM, mean
[2] = KAR5585 200 mg BID fed, Cohort 3, Day 7 AM, Day 7/Day 1 accumulation ratio, geo. mean
[3] = KAR5585 200 mg BID fed, Cohort 3, Day 7 AM, Day 7/Day 1 accumulation ratio, mean
[4] = KAR5585 200 mg BID fed, Cohort 3, Day 7 AM, geo. mean
[5] = KAR5585 200 mg BID fed, Cohort 3, Day 7 AM, mean
[6] = KAR5585 200 mg BID fed, Cohort 3, Day 7 PM, Day 7/Day 1 accumulation ratio, geo. mean
[7] = KAR5585 200 mg BID fed, Cohort 3, Day 7 PM, Day 7/Day 1 accumulation ratio, mean
[8] = KAR5585 200 mg BID fed, Cohort 3, Day 7 PM, geo. mean
[9] = KAR5585 200 mg BID fed, Cohort 3, Day 7 PM, mean
[10] = KAR5585 200 mg BID fed, Cohort 3, Day 14 AM, Day 14/Day 1 accumulation ratio, geo. mean
[11] = KAR5585 200 mg BID fed, Cohort 3, Day 14 AM, Day 14/Day 1 accumulation ratio, mean
[12] = KAR5585 200 mg BID fed, Cohort 3, Day 14 AM, geo. mean
[13] = KAR5585 200 mg BID fed, Cohort 3, Day 14 AM, mean
[14] = KAR5585 400 mg BID fed, Cohort 4, Day 1 AM, geo. mean
[15] = KAR5585 400 mg BID fed, Cohort 4, Day 1 AM, mean
[16] = KAR5585 400 mg BID fed, Cohort 4, Day 1 PM, geo. mean
[17] = KAR5585 400 mg BID fed, Cohort 4, Day 1 PM, mean
[18] = KAR5585 400 mg BID fed, Cohort 4, Day 7 AM, Day 7/Day 1 accumulation ratio, geo. mean
[19] = KAR5585 400 mg BID fed, Cohort 4, Day 7 AM, Day 7/Day 1 accumulation ratio, mean
[20] = KAR5585 400 mg BID fed, Cohort 4, Day 7 AM, geo. mean
[21] = KAR5585 400 mg BID fed, Cohort 4, Day 7 AM, mean
[22] = KAR5585 400 mg BID fed, Cohort 4, Day 7 PM, Day 7/Day 1 accumulation ratio, geo. mean
[23] = KAR5585 400 mg BID fed, Cohort 4, Day 7 PM, Day 7/Day 1 accumulation ratio, mean
[24] = KAR5585 400 mg BID fed, Cohort 4, Day 7 PM, geo. mean
[25] = KAR5585 400 mg BID fed, Cohort 4, Day 7 PM, mean
[26] = KAR5585 400 mg BID fed, Cohort 4, Day 14 AM, Day 14/Day 1 accumulation ratio, geo. mean
[27] = KAR5585 400 mg BID fed, Cohort 4, Day 14 AM, Day 14/Day 1 accumulation ratio, mean
[28] = KAR5585 400 mg BID fed, Cohort 4, Day 14 AM, geo. mean
[29] = KAR5585 400 mg BID fed, Cohort 4, Day 14 AM, mean
[30] = power model, PK Day 1 (AM), 100 to 400 mg KAR5585 repeat oral doses, fed
[31] = power model, PK Day 7 (AM), 100 to 400 mg KAR5585 repeat oral doses, fed
[32] = power model, PK Day 14 (AM), 100 to 400 mg KAR5585 repeat oral doses, fed

Text: Food effect was to be evaluated in Part 1, Period 2.
Pharmacokinetic data were to be summarized descriptively.

## Nc1nc(O[C@H](c2ccc(Cl)cc2-c2ccccc2)C(F)(F)F)cc(N2CCC3(CC2)CN[C@H](C(=O)O)C3)n1 [KAR5417, (S)-8-(2-amino-6-((R)-1-(5-chloro-[1,1T-biphenyl]-2-yl)-2,2,2-trifluoroeth-oxy)pyrimidin-4-yl)-2,8-diazaspiro[4.5]decane-3-carboxylic acid]
KAR5585 200 mg BID fed, Cohort 3, Day 1 PM, geo. mean
  t1/2: 5.95 h
[1]
  AUC0-12: 2000 ng·h/mL
  AUC0-24: 3700 ng·h/mL
  AUC0-24/D: 9.26 (hr*ng/ml)/mg
  AUC0-∞: 2720 ng·h/mL
  C12: 112 ng/mL
  Cmax: 322 ng/mL
  Cmax/D: 1.61 (ng/ml)/mg
  t1/2: 6.03 h
KAR5585 200 mg BID fed, Cohort 3, Day 1 PM, median
  Tmax: 4.0 h
[2]
  RAUC0-12: 1.33
  RCmax: 0.989
[3]
  RAUC0-12: 1.34
  RCmax: 1.00
[4]
  AUC0-12: 2150 ng·h/mL
  AUC0-∞: 2610 ng·h/mL
  C12: 87.2 ng/mL
  Cmax: 332 ng/mL
  Cmax/D: 1.66 (ng/ml)/mg
  t1/2: 4.57 h
[5]
  AUC0-12: 2300 ng·h/mL
  AUC0-∞: 2800 ng·h/mL
  C12: 93.1 ng/mL
  Cmax: 359 ng/mL
  Cmax/D: 1.80 (ng/ml)/mg
  t1/2: 4.61 h
[6]
  RAUC0-12: 0.955
  RCmax: 0.645
[7]
  RAUC0-12: 0.984
  RCmax: 0.711
[8]
  AUC0-12: 1490 ng·h/mL
  AUC0-24: 3620 ng·h/mL
  AUC0-24/D: 9.05 (hr*ng/ml)/mg
  AUC0-∞: 2270 ng·h/mL
  C12: 131 ng/mL
  Cmax: 212 ng/mL
  Cmax/D: 1.06 (ng/ml)/mg
  t1/2: 6.48 h
[9]
  AUC0-12: 1540 ng·h/mL
  AUC0-24: 3810 ng·h/mL
  AUC0-24/D: 9.52 (hr*ng/ml)/mg
  AUC0-∞: 2280 ng·h/mL
  C12: 145 ng/mL
  Cmax/D: 1.11 (ng/ml)/mg
  t1/2: 6.64 h
[10]
  RAUC0-12: 1.07
  RCmax: 0.854
[11]
  RAUC0-12: 1.09
  RCmax: 0.901
[12]
  AUC0-12: 1670 ng·h/mL
  AUC0-24: 2200 ng·h/mL
  AUC0-∞: 3250 ng·h/mL
  C12: 59.6 ng/mL
  Cmax: 281 ng/mL
  Cmax/D: 1.40 (ng/ml)/mg
  t1/2: 24.1 h
[13]
  AUC0-12: 1820 ng·h/mL
  AUC0-24: 2380 ng·h/mL
  AUC0-∞: 3480 ng·h/mL
  C12: 63.5 ng/mL
  C24: 32.6 ng/mL
  Cmax: 319 ng/mL
  Cmax/D: 1.59 (ng/ml)/mg
  t1/2: 25.0 h
[14]
  AUC0-12: 2920 ng·h/mL
  AUC0-∞: 3400 ng·h/mL
  C12: 90.2 ng/mL
  Cmax: 532 ng/mL
  Cmax/D: 1.33 (ng/ml)/mg
  t1/2: 3.71 h
[15]
  AUC0-12: 3280 ng·h/mL
  AUC0-∞: 3780 ng·h/mL
  C12: 99.3 ng/mL
  Cmax: 595 ng/mL
  Cmax/D: 1.49 (ng/ml)/mg
  t1/2: 3.80 h
[16]
  AUC0-12: 4340 ng·h/mL
  AUC0-24: 7430 ng·h/mL
  AUC0-24/D: 9.28 (hr*ng/ml)/mg
  AUC0-∞: 6860 ng·h/mL
  C12: 242 ng/mL
  Cmax: 670 ng/mL
  Cmax/D: 1.68 (ng/ml)/mg
  t1/2: 5.3 h
[17]
  AUC0-12: 4590 ng·h/mL
  AUC0-24: 7870 ng·h/mL
  AUC0-24/D: 9.83 (hr*ng/ml)/mg
  AUC0-∞: 7090 ng·h/mL
  C12: 252 ng/mL
  Cmax: 739 ng/mL
  Cmax/D: 1.85 (ng/ml)/mg
  t1/2: 5.31 h
[18]
  RAUC0-12: 2.15
  RCmax: 1.81
[19]
  RAUC0-12: 2.38
  RCmax: 2.00
[20]
  AUC0-12: 6250 ng·h/mL
  AUC0-∞: 7480 ng·h/mL
  C12: 222 ng/mL
  Cmax: 960 ng/mL
  Cmax/D: 2.40 (ng/ml)/mg
  t1/2: 3.89 h
[21]
  AUC0-12: 6600 ng·h/mL
  AUC0-∞: 7840 ng·h/mL
  C12: 240 ng/mL
  Cmax: 1000 ng/mL
  Cmax/D: 2.51 (ng/ml)/mg
  t1/2: 3.94 h
[22]
  RAUC0-12: 1.50
  RCmax: 1.08
[23]
  RAUC0-12: 1.63
  RCmax: 1.18
[24]
  AUC0-12: 4360 ng·h/mL
  AUC0-24: 10600 ng·h/mL
  AUC0-24/D: 13.3 (hr*ng/ml)/mg
  AUC0-∞: 6450 ng·h/mL
  C12: 356 ng/mL
  Cmax: 574 ng/mL
  Cmax/D: 1.44 (ng/ml)/mg
  t1/2: 5.08 h
[25]
  AUC0-12: 4610 ng·h/mL
  AUC0-24: 11200 ng·h/mL
  AUC0-24/D: 14.0 (hr*ng/ml)/mg
  AUC0-∞: 6520 ng·h/mL
  C12: 396 ng/mL
  Cmax/D: 1.52 (ng/ml)/mg
  t1/2: 5.10 h
[26]
  RAUC0-12: 1.43
  RCmax: 1.35
[27]
  RAUC0-12: 1.65
  RCmax: 1.54
[28]
  AUC0-12: 4160 ng·h/mL
  AUC0-24: 5410 ng·h/mL
  AUC0-24/D: 13.5 (hr*ng/ml)/mg
  AUC0-∞: 8120 ng·h/mL
  C12: 140 ng/mL
  C24: 73.3 ng/mL
  Cmax: 717 ng/mL
  Cmax/D: 1.79 (ng/ml)/mg
  t1/2: 30.4 h
[29]
  AUC0-24: 5660 ng·h/mL
  AUC0-24/D: 14.1 (hr*ng/ml)/mg
  AUC0-∞: 8500 ng·h/mL
  C12: 149 ng/mL
  Cmax: 749 ng/mL
  Cmax/D: 1.87 (ng/ml)/mg
  t1/2: 30.6 h
[30]
  Dose proportionality analysis, AUC0-12: Intercept estimate: 0.828
  Dose proportionality analysis, AUC0-inf: Intercept estimate: 1.12
  Dose proportionality analysis, Cmax: Intercept estimate: 0.167
[31]
  Dose proportionality analysis, AUC0-12: Intercept estimate: 2.63
  Dose proportionality analysis, Cmax: Intercept estimate: 0.393
[32]
  Dose proportionality analysis, AUC0-12: Intercept estimate: 5.18
  Dose proportionality analysis, Cmax: Intercept estimate: 0.877
